What was measured:
iNOS [1] = assay: iNOS Western blot in RAW264.7 mouse macrophages; type: cell-based; details: compounds at 300 nM for 2 hours, 24 hour induction by IFNγ, read-out: iNOS suppr. WB
Description: FIGS. 38-40. iNOS Western Blot in RAW264.7 mouse macrophages. Cells were pretreated by compounds at 300 nM for 2 hours, followed by 24 hour induction by IFNγ (20 ng/ml). […]

TrxR1 = assay: Nrf2 target gene induction in MDA-MB-435 cells, qPCR: TrxR1; type: cell-based, human; details: 16 hours
Description: (§1) FIGS. 44, 46 and 47—Induction of HO-1, TrxR1 and γ-GCS. FIGS. 44A-C, 46A-C, 47A-C: MDA-MB-435 human melanoma cells were treated with vehicle (DMSO) or the indicated compounds (400 nM) for 16 hours. HO-1, thioredoxin reductase-1 (TrxR1), and γ-glutamylcysteine synthetase (γ-GCS) mRNA levels were quantified using qPCR and were normalized relative to a DMSO-treated sample run in parallel. Values are averages of duplicate wells. FIGS. 44D, 46D, 47D: MDA-MB-435 cells were treated with vehicle (DMSO) or the indicated compounds at 400 nM for 16 hours. HO-1, TrxR1 and actin protein levels were assayed by immunoblotting.
(§2) FIG. 45. Induction of HO-1, TrxR1 and γ-GCS. FIGS. 45 A-C: MDA-MB-435 cells were treated with vehicle (DMSO) or the indicated compounds at 160 nM for 16 hours. HO-1, TrxR1, and γ-GCS mRNA levels were quantified by qPCR and were normalized relative to a DMSO-treated sample run in parallel. Values are averages of duplicate wells. FIGS. 44D, 46D, 47D: MDA-MB-435 cells were treated with vehicle (DMSO) or the indicated compounds at 160 nM for 16 hours. HO-1, TrxR1 and actin protein levels were assayed by immunoblotting.
(§3) MDA-MB-435 human melanoma cells were treated with vehicle (DMSO) or the indicated compounds and concentrations for 16 hours. HO-1, thioredoxin reductase-1 (TrxR1), γ-glutamylcysteine synthetase (γ-GCS), and ferritin heavy chain mRNA levels were quantified using qPCR and were normalized relative to a DMSO-treated sample run in parallel. Values are averages of duplicate wells. Primer sequences are as follows.

HO-1 = assay: Nrf2 target gene induction in MDA-MB-435 cells, qPCR: HO-1; type: cell-based, human; details: 16 hours
Description: FIG. 43. Induction of HO-1. FIGS. 43A and 43B: MDA-MB-435 human melanoma cells were treated with vehicle (DMSO) or the indicated compounds and concentrations for 16 hours. HO-1 mRNA levels were quantified using qPCR and were normalized relative to a DMSO-treated sample run in parallel. Values are averages of duplicate wells. FIG. 43C: MDA-MB-435 cells were treated with vehicle (DMSO) or the indicated compounds at 400 nM for 16 hours. HO-1, TrxR1 and actin protein levels were assayed by immunoblotting. Actin served as a loading control.
as §1, §2, §3

RAW264.7 macrophages = assay: Cell viability, WST-1 reagent; type: cell-based, mouse; details: Mus musculus, 2 h pre-treatment, then 20 ng/ml IFNγ for 24 hours
Description: (§4) FIGS. 1-34. Inhibition of NO Production. RAW264.7 macrophages were pre-treated with DMSO or drugs at various concentrations (nM) for 2 hours, then treated with 20 ng/ml IFNγ for 24 hours. NO concentration in media was determined using the Griess reagent system; cell viability was determined using WST-1 reagent. FIGS. 49-52. Inhibition of NO Production. RAW264.7 macrophages were pre-treated with DMSO or drugs at various concentrations (nM) for 2 hours, then treated with 20 ng/ml IFNγ for 24 hours. NO concentration in media was determined using the Griess reagent system; cell viability was determined using WST-1 reagent. RAW264.7 macrophages were pre-treated with DMSO or drugs for 2 hours, then treated with recombinant mouse IFNγ (Sigma) for 24 hours. NO concentration in media was determined using the Griess reagent system (Promega). Cell viability was determined using WST-1 reagent (Roche).

iNOS [2] = assay: Suppression of iNOS mRNA induction, qPCR; type: cell-based, mouse; details: RAW264.7; 2 h pre-treatment, 10 ng/ml IFNγ for 2 hours
Description: (§5) FIG. 35. Suppression of iNOS mRNA induction. RAW264.7 mouse macrophages were pre-treated for 2 hours with compounds at the indicated concentrations and subsequently stimulated with 10 ng/ml IFNγ for an additional 2 hours. mRNA levels of iNOS were quantified by qPCR and are shown relative to the vehicle-treated IFNγ-stimulated sample which was normalized to a value of 1. Values are averages of duplicate PCR reactions, each with triplicate wells.
as §5, with “36.” for “35.”
as §5, with “37.” for “35.”
as §5, with “RAW264.7” for “FIG. 35. Suppression of iNOS mRNA induction. RAW264.7”, “macrophage cells” for “macrophages”

γ-GCS = assay: Nrf2 target gene induction in MDA-MB-435 cells, qPCR: γ-GCS; type: cell-based, human; details: 160 nM, 16 hours
Description: as §1, §2, §3

[3] = tested on: IFNγ-induced NO production in RAW264.7 macrophages; assay: Suppression of IFNγ-induced NO production (Griess reagent); type: cell-based, mouse; details: Mus musculus, 2 h pre-treatment, then 20 ng/ml IFNγ for 24 hours
Description: as §4

IC50 [3] [nM]	SMILES	inhibition at 0.3 µM (iNOS [1]) [%]	TrxR1 induction (TrxR1; 160 nM)	HO-1 induction (HO-1; 160 nM)	IC50 (RAW264.7 macrophages) [nM]	iNOS suppr. qPCR (iNOS [2]) [%]	γ-GCS induction (γ-GCS)	TrxR1 induction (TrxR1; 400 nM)	HO-1 induction (HO-1; 400 nM)
2	COC(=O)N[C@]12CCC(C)(C)C[C@H]1[C@H]1C(=O)C=C3[C@@]4(C)C=C(C#N)C(=O)C(C)(C)[C@@H]4CC[C@@]3(C)[C@]1(C)CC2 [Compound 63167, methyl-(4aS,6aR,6bS,8aR,12aS,14aR,14bS)-11-cyano-2,2,6a,6b,9,9,12a-heptamethyl-10,14-dioxo-1,2,3,4,4a,5,6,6a,6b,7,8,8a,9,10,12a,14,14a,14b-octadecahydropicen-4a-ylcarbamate]	~90			180	~50		62% of induction observed for RTA 402	61% of induction observed for RTA 402
2	CC1(C)CC[C@]2(NS(C)(=O)=O)CC[C@]3(C)[C@H](C(=O)C=C4[C@@]5(C)C=C(C#N)C(=O)C(C)(C)[C@@H]5CC[C@]43C)[C@@H]2C1 [Compound 63175, N-((4aS,6aR,6bS,8aR,12aS,14aR,14bS)-11-cyano-2,2,6a,6b,9,9,12a-heptamethyl-10,14-dioxo-1,2,3,4,4a,5,6,6a,6b,7,8,8a,9,10,12a,14,14a,14b-octadecahydropicen-4a-yl)methanesulfonamide]	~90	86% of induction observed for RTA 402	15% of induction observed for RTA 402	200	~65	64% of induction observed for RTA 402	48% of induction observed for RTA 402	10% of induction observed for RTA 402
4	C=CC(=O)N[C@]12CCC(C)(C)C[C@H]1[C@H]1C(=O)C=C3[C@@]4(C)C=C(C#N)C(=O)C(C)(C)[C@@H]4CC[C@@]3(C)[C@]1(C)CC2 [Compound 63183, N-((4aS,6aR,6bS,8aR,12aS,14aR,14bS)-11-cyano-2,2,6a,6b,9,9,12a-heptamethyl-10,14-dioxo-1,2,3,4,4a,5,6,6a,6b,7,8,8a,9,10,12a,14,14a,14b-octadecahydropicen-4a-yl)acrylamide]	~90	71% of induction observed for RTA 402	28% of induction observed for RTA 402	150	50	55% of induction observed for RTA 402		

Continued, compound first:

SMILES	IC50 [3] [nM]	inhibition at 0.3 µM (iNOS [1]) [%]	TrxR1 induction (TrxR1; 160 nM)	HO-1 induction (HO-1; 160 nM)	IC50 (RAW264.7 macrophages) [nM]	iNOS suppr. qPCR (iNOS [2]) [%]	γ-GCS induction (γ-GCS)	TrxR1 induction (TrxR1; 400 nM)	HO-1 induction (HO-1; 400 nM)
CCS(=O)(=O)N[C@]12CCC(C)(C)C[C@H]1[C@H]1C(=O)C=C3[C@@]4(C)C=C(C#N)C(=O)C(C)(C)[C@@H]4CC[C@@]3(C)[C@]1(C)CC2 [Compound 63193, N-((4aS,6aR,6bS,8aR,12aS,14aR,14bS)-11-cyano-2,2,6a,6b,9,9,12a-heptamethyl-10,14-dioxo-1,2,3,4,4a,5,6,6a,6b,7,8,8a,9,10,12a,14,14a,14b-octadecahydropicen-4a-yl)ethanesulfonamide]	1.5	> 90	86% of induction observed for RTA 402	6% of induction observed for RTA 402	> 200	~65	55% of induction observed for RTA 402		
CC1(C)CC[C@]2(NS(=O)(=O)C3CC3)CC[C@]3(C)[C@H](C(=O)C=C4[C@@]5(C)C=C(C#N)C(=O)C(C)(C)[C@@H]5CC[C@]43C)[C@@H]2C1 [Compound 63243, N-((4aS,6aR,6bS,8aR,12aS,14aR,14bS)-11-cyano-2,2,6a,6b,9,9,12a-heptamethyl-10,14-dioxo-1,2,3,4,4a,5,6,6a,6b,7,8,8a,9,10,12a,14,14a,14b-octadecahydropicen-4a-yl)cyclopropanesulfonamide]	2.9	~90	57% of induction observed for RTA 402	25% of induction observed for RTA 402	150	50	36% of induction observed for RTA 402		
CC1(C)CC[C@]2(NS(=O)(=O)c3ccccc3)CC[C@]3(C)[C@H](C(=O)C=C4[C@@]5(C)C=C(C#N)C(=O)C(C)(C)[C@@H]5CC[C@]43C)[C@@H]2C1 [Compound 63192, N-((4aS,6aR,6bS,8aR,12aS,14aR,14bS)-11-cyano-2,2,6a,6b,9,9,12a-heptamethyl-10,14-dioxo-1,2,3,4,4a,5,6,6a,6b,7,8,8a,9,10,12a,14,14a,14b-octadecahydropicen-4a-yl)benzenesulfonamide]	2.8	> 90	14% of induction observed for RTA 402	1% of induction observed for RTA 402	150	~60	9% of induction observed for RTA 402		
CC1(C)CC[C@]2(N)CC[C@]3(C)[C@H](C(=O)C=C4[C@@]5(C)C=C(C#N)C(=O)C(C)(C)[C@@H]5CC[C@]43C)[C@@H]2C1 [Compound 63169, (4aR,6aS,6bR,8aS,12aS,12bR,14bS)-8a-amino-4,4,6a,6b,11,11,14b-heptamethyl-3,13-dioxo-3,4,4a,5,6,6a,6b,7,8,8a,9,10,11,12,12a,12b,13,14b-octadecahydropicene-2-carbonitrile]	3.6	~90	129% of induction observed for RTA 402	2% of induction observed for RTA 402	> 200	~50	73% of induction observed for RTA 402		
CC1(C)CC[C@]2(NC(=O)N3CCC(O)CC3)CC[C@]3(C)[C@H](C(=O)C=C4[C@@]5(C)C=C(C#N)C(=O)C(C)(C)[C@@H]5CC[C@]43C)[C@@H]2C1 [Compound 63185, N-((4aS,6aR,6bS,8aR,12aS,14aR,14bS)-11-cyano-2,2,6a,6b,9,9,12a-heptamethyl-10,14-dioxo-1,2,3,4,4a,5,6,6a,6b,7,8,8a,9,10,12a,14,14a,14b-octadecahydropicen-4a-yl)-4-hydroxypiperidine-1-carboxamide]	91	0	71% of induction observed for RTA 402	1% of induction observed for RTA 402	> 200	0	27% of induction observed for RTA 402		
